Assay results reported in paper PMC3832616, “Crystal Structure of the Pleckstrin Homology Domain from the Ceramide Transfer Protein: Implications for Conformational Change upon Ligand Binding” (PLoS ONE, 2013).

Molecular target: T1, Ceramide transfer protein (CERT) (Homo sapiens, UniProt Q9Y5P4)
T1 construct: gene CERT1; PH domain, residues 20–122 (three extra amino acids G-E-F before residue 20)
T1 sequence (Q9Y5P4 20-122): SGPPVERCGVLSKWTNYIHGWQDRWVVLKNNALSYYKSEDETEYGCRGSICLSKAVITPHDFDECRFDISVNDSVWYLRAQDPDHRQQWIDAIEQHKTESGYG
Assay: […]-1H HSQC NMR chemical shift titration, global fit
Assay type: binding

Work on `CCCCCC(=O)OC[C@H](COP(=O)(O)O[C@H]1[C@H](O)[C@@H](O)[C@H](OP(=O)(O)O)[C@@H](O)[C@H]1O)OC(=O)CCCCC` [diC6-PtdIns(4)P] yielded a Kd of 470 ± 14 µM.
